Values of other authors in US20260191865A1, “CANCER THERAPY WITH CAPIVASERTIB AND FULVESTRANT” (AstraZeneca AB, priority 2022, published 2026).
Read-outs that look alike come from different tables or passages of the source.

System: ER-positive, HER2-negative advanced breast cancer

Structure (SMILES): NC1(C(=O)N[C@@H](CCO)c2ccc(Cl)cc2)CCN(c2ncnc3[nH]ccc23)CC1 [capivasertib, (S)-4-amino-N-(1-(4-chlorophenyl)-3-hydroxypropyl)-1-(7H-pyrrolo[2,3-d]pyrimidin-4-yl)piperidine-4-carboxamide]
- PFS and overall survival benefit (NGS-identified pathway non-altered subgroup): no such benefit
- progression-free survival (PFS) (capivasertib added to fulvestrant, postmenopausal women, AI-resistant, no previous CDK4/6 inhibitor): significant improvement
- PFS and overall survival benefit (expanded (NGS) PI3K/AKT/PTEN pathway-altered subgroup, updated analysis): significant PFS and overall survival benefit
- benefit by original pathway status (secondary endpoint subgroup analysis) (original pathway-altered and original pathway non-altered subgroups, capivasertib added to fulvestrant): conferred benefit
